Source: US4472304A, “(Amido)N-substituted bleomycins, salts thereof and process for preparation thereof” (Nippon Kayaku Kabushiki Kaisha, priority 1981, dated 1984)

How the values were obtained:
[1] = test system: Mycobacterium smegmatis ATCC 607; experiment: Antimicrobial activity against Mycobacterium smegmatis ATCC 607 (agar plate-cylinder); format: cell-based; conditions: standard bleomycin A2 (copper-free) assumed 1,000 mcg potency/mg
Description: (§1) 2. ANT[…] MYC[…] ATCC 607 AND BACILLUS SUBTILIS
(§2) The antimicrobial activity was tested against the captioned test organisms by the method of agar plate-cylinder. The activity was recorded on the assumption that the activity of standard sample of bleomycin A2 (copper-free form) is 1,000 mcg poteney/mg.

Bacillus subtilis = experiment: Antimicrobial activity against Bacillus subtilis (agar plate-cylinder); format: cell-based; conditions: standard bleomycin A2 (copper-free) assumed 1,000 mcg potency/mg
Description: as §1, §2

pulmonary fibrosis = experiment: Pulmonary toxicity (pulmonary fibrosis) in mice; conditions: for Incidence: Number of mice with pulmonary fibrosis (%) / Incidence: Number of mice with pulmonary fibrosis / Grade: Total score of pulmonary fibrosis/total number of samples / Grade: Total score of pulmonary fibrosis/total number of samples (%): ICR mice, 5 mg/kg i.p. once a day for 10 days; for Incidence: Number of mice with pulmonary fibrosis (%) / Incidence: Number of mice with pulmonary fibrosis: 5 weeks observation; for Incidence: Number of mice with pulmonary fibrosis: mice with fibrosis/total; for Grade: Total score of pulmonary fibrosis/total number of samples / Grade: Total score of pulmonary fibrosis/total number of samples (%): points 0, 1, 2, 4, 6; for Ratio (by comparison with "Bleomycin Complex"): versus Bleomycin Complex

## Cc1c(N)nc(C(CC(N)=O)NCC(N)C(=O)NC(C)C)nc1C(=O)NC(C(=O)NC(C)C(O)C(C)C(=O)NC(C(=O)NCCc1nc(-c2nc(C(=O)NCCCNC(C)c3ccccc3)cs2)cs1)C(C)O)C(OC1OC(CO)C(O)C(O)C1OC1OC(CO)C(O)C(OC(N)=O)C1O)c1cnc[nH]1 [Compound 21, 3-((S)-1'-phenylethyl)aminopropylamino-(amido)N--[isopropyl]-BLM]
[1]
  Antimicrobial potency of Cu-free compound against Mycobacterium smegmatis ATCC 607: 11998 mcg potency/mg
Bacillus subtilis
  Antimicrobial potency of Cu-free compound against Bacillus subtilis: 962 mcg potency/mg
Pulmonary fibrosis
  Incidence: Number of mice with pulmonary fibrosis (%): 38%
  Incidence: Number of mice with pulmonary fibrosis: 3/8
  Grade: Total score of pulmonary fibrosis/total number of samples: 5/24
  Grade: Total score of pulmonary fibrosis/total number of samples (%): 21%
  Ratio (by comparison with "Bleomycin Complex"): 0.27

## Cc1c(N)nc(C(CC(N)=O)NCC(N)C(=O)NCCCNC(C)c2ccccc2)nc1C(=O)NC(C(=O)NC(C)C(O)C(C)C(=O)NC(C(=O)NCCc1nc(-c2nc(C(=O)NCCCNC(C)c3ccccc3)cs2)cs1)C(C)O)C(OC1OC(CO)C(O)C(O)C1OC1OC(CO)C(O)C(OC(N)=O)C1O)c1cnc[nH]1 [Compound 22, 3-((S)-1'-phenylethyl)aminopropylamino-(amido)N--[3-((S)-1'-phenylethyl)aminopropyl]-BLM]
[1]
  Antimicrobial potency of Cu-free compound against Mycobacterium smegmatis ATCC 607: 28030 mcg potency/mg
Bacillus subtilis
  Antimicrobial potency of Cu-free compound against Bacillus subtilis: 2800 mcg potency/mg
Pulmonary fibrosis
  Incidence: Number of mice with pulmonary fibrosis (%): 13%
  Incidence: Number of mice with pulmonary fibrosis: 1/8
  Grade: Total score of pulmonary fibrosis/total number of samples: 1/21
  Grade: Total score of pulmonary fibrosis/total number of samples (%): 4%
  Ratio (by comparison with "Bleomycin Complex"): 0.05

## Cc1c(N)nc(C(CC(N)=O)NCC(N)C(=O)NCCN2CCNCC2)nc1C(=O)NC(C(=O)NC(C)C(O)C(C)C(=O)NC(C(=O)NCCc1nc(-c2nc(C(=O)NCCCNC(C)c3ccccc3)cs2)cs1)C(C)O)C(OC1OC(CO)C(O)C(O)C1OC1OC(CO)C(O)C(OC(N)=O)C1O)c1cnc[nH]1 [Compound 33, 3-((S)-1'-phenylethylamino)propylamino-(amido)N--[2-(1-piperazinyl)ethyl]-BLM]
[1]
  Antimicrobial potency of Cu-free compound against Mycobacterium smegmatis ATCC 607: 6359 mcg potency/mg
Bacillus subtilis
  Antimicrobial potency of Cu-free compound against Bacillus subtilis: 5009 mcg potency/mg
Pulmonary fibrosis
  Incidence: Number of mice with pulmonary fibrosis (%): 56%
  Incidence: Number of mice with pulmonary fibrosis: 5/9
  Grade: Total score of pulmonary fibrosis/total number of samples: 11/27
  Grade: Total score of pulmonary fibrosis/total number of samples (%): 41%
  Ratio (by comparison with "Bleomycin Complex"): 0.44

## CCCCN(CCCC)CCCNC(=O)C(N)CNC(CC(N)=O)c1nc(N)c(C)c(C(=O)NC(C(=O)NC(C)C(O)C(C)C(=O)NC(C(=O)NCCc2nc(-c3nc(C(=O)NCCCNC(C)c4ccccc4)cs3)cs2)C(C)O)C(OC2OC(CO)C(O)C(O)C2OC2OC(CO)C(O)C(OC(N)=O)C2O)c2cnc[nH]2)n1 [Compound 34, 3-((S)-1'-phenylethylamino)propylamino-(amido)N--[3-(di-n-butylamino)propyl]-BLM]
[1]
  Antimicrobial potency of Cu-free compound against Mycobacterium smegmatis ATCC 607: 26023 mcg potency/mg
Bacillus subtilis
  Antimicrobial potency of Cu-free compound against Bacillus subtilis: 2843 mcg potency/mg
Pulmonary fibrosis
  Incidence: Number of mice with pulmonary fibrosis (%): 0%
  Incidence: Number of mice with pulmonary fibrosis: 0/8
  Grade: Total score of pulmonary fibrosis/total number of samples: 0/24
  Grade: Total score of pulmonary fibrosis/total number of samples (%): 0%
  Ratio (by comparison with "Bleomycin Complex"): 0

## Cc1c(N)nc(C(CC(N)=O)NCC(N)C(=O)NCCCNC(C)c2ccccc2)nc1C(=O)NC(C(=O)NC(C)C(O)C(C)C(=O)NC(C(=O)NCCc1nc(-c2nc(C(=O)NCCCN(C)CCCNCc3ccc(C#N)cc3)cs2)cs1)C(C)O)C(OC1OC(CO)C(O)C(O)C1OC1OC(CO)C(O)C(OC(N)=O)C1O)c1cnc[nH]1 [Compound 63, 3-{N--methyl-N--[3-(p-cyanobenzylamino)propyl]amino]propylamino-(amido)N--[(3-((S)-1'-phenylethylamino)propyl]-BLM]
[1]
  Antimicrobial potency of Cu-free compound against Mycobacterium smegmatis ATCC 607: 21877 mcg potency/mg
Bacillus subtilis
  Antimicrobial potency of Cu-free compound against Bacillus subtilis: 11056 mcg potency/mg
